The structures appear in SMILES notation.

The test system of this test is myostatin gene expression in C2C12 cells. The experiment in a line: Inhibition of myostatin expression in C2C12 cells (qPCR). In kind it is cell-based. The settings on record: Mus musculus, percentage myostatin gene expression in cells in contact with the compounds related to control cells, C2C12, 6 h. The method, then:
After several experiments in which the C2C12 cells differentiated into myotubes were incubated in the presence of IGF-1 or 20E for 2 h 30 or 6 h, two screening tests were developed. Thus, the phosphorylation of the S6 protein kinase and the expression of the myostatin gene were studied in order to determine their modulation by a growth hormone or an ecdysone and to characterize these modulations from a statistical point of view. The C2C12 myoblast cells (ATCC CRL-1772) are seeded into 24-well plates at a density of 30 000 cells per well and cultured in a DMEM medium containing glucose in a proportion of 4.5 g/l and supplemented with fetal calf serum (10%) and with antibiotics (penicillin and streptomycin). Forty-eight hours later, the myoblasts are induced to differentiate by partial serum depletion (2% instead of 10%) for 5 days. The cells are then placed in a medium which is glucose-depleted (DMEM containing 1 g/l of glucose) and serum-free in the presence of the test molecules or of the references (100 ng/ml IGF-1 or 10 μ[…]) for 6 h. At the end of the experiment, the messenger RNAs (mRNAs) are extracted using the conventional methodology based on phenol and chloroform. Briefly, the cells are lysed in a Trizol solution (Sigma T9424) containing a strong acid and phenol. The mRNAs are separated from the proteins by addition of chloroform and then centrifugation. They are then precipitated from isopropanol and then suspended at a concentration of 1 μg/μl in an […] ultrapure water. 1 μg of mRNA is then converted by reverse transcription into complementary DNA by the AMV enzyme in the presence of a primer and of a mixture of nucleotides according to the protocol given by the supplier (Applied Biosystems 4368814). […] The qPCRs are carried out on a 7900HT Fast real-Time PCR detection system (Applied Biosystems). The programming conditions are standard and consist of 1 cycle at 95° C. for 15 min, followed by 40 cycles at 95° C. for 15 s and at 60° C. for 1 min and the program ends with a melt curve step between 60° C. and 95° C. […] Fluorescent probes bind to the double-stranded DNA and are fluorescent only once bound to the DNA. A fluorescence threshold is established by the machine's program. When the amount of DNA allows the fluorescent probe to exceed this threshold, a PCR cycle number, called “Ct” for “Cycle Threshold”, is obtained. It is this value which forms the basis of the calculations to quantify the DNA relatively. A ratio R is established between the amount of starting DNA of a sample and that of a control, which has not undergone treatment (i.e. […] R=2^-ΔΔCt).
On the technique in general: Real-time PCR tracks product formation cycle by cycle.
Compound `CC(=NOCC(=O)O)[C@H]1CCC2C3=CC(=O)[C@@H]4C[C@@H](O)[C@@H](O)C[C@]4(C)C3CC[C@@]21C` (stereo partly drawn) [Compound 4, 2-[1-[(2S,3R,5R,10R,13S,17S)-2,3-dihydroxy-10,13-dimethyl-6-oxo-1,2,3,4,5,9,11,12,14,15,16,17-dodecahydrocyclopenta[a]phenanthren-17-yl]ethylideneamino]oxyacetic acid] came in with a mrna remaining at 10 µM of less than 70%.

`CCON=C(C)[C@H]1CCC2C3=CC(=O)[C@@H]4C[C@@H](O)[C@@H](O)C[C@]4(C)C3CC[C@@]21C` (stereo partly drawn) [Compound 5, (2S,3R,5R,10R,13S,17S)-17-(N-ethoxy-C-methylcarbonimidoyl)-2,3-dihydroxy-10,13-dimethyl-1,2,3,4,5,9,11,12,14,15,16,17-dodecahydrocyclopenta[a]phenanthren-6-one] had a mrna remaining at 10 µM of less than 70%.

In turn, `CO/N=C1/C=C2C3=CC[C@H](C(C)=NO)[C@@]3(C)CCC2[C@@]2(C)C[C@H](O)[C@H](O)C[C@@H]12` (stereo partly drawn) [Compound 7, 1-[(2S,3R,5R,6Z,10R,13R,17S)-2,3-dihydroxy-6-methoxyimino-10,13-dimethyl-1,2,3,4,5,9,11,12,16,17-decahydrocyclopenta[a]phenanthren-17-yl]ethanone oxime] gave a mrna remaining at 10 µM of less than 70%.

On to `COCCON=C(C)[C@H]1CC[C@@]2(O)C3=C/C(=N\OC)[C@@H]4C[C@@H](O)[C@@H](O)C[C@]4(C)C3CC[C@]12C` (stereo partly drawn) [Compound 19, (2S,3R,5R,6E,10R,13R,14S,17S)-17-(N-(2-methoxyethoxy)-C-methylcarbonimidoyl)-6-methoxyimino-10,13-dimethyl-2,3,4,5,9,11,12,15,16,17-decahydro-1H-cyclopenta[a]phenanthrene-2,3,14-triol], for which the mrna remaining at 10 µM was in the range of 71 to 85%.

Consider `CC(C)=CCON=C(C)[C@H]1CC[C@@]2(O)C3=C/C(=N\O)[C@@H]4C[C@@H](O)[C@@H](O)C[C@]4(C)C3CC[C@]12C` (stereo partly drawn) [Compound 21, (2S,3R,5R,10R,13R,14S,17S)-2,3,14-trihydroxy-10,13-dimethyl-17-(C-methyl-N-(3-methylbut-2-enoxy)carbonimidoyl)-2,3,4,5,9,11,12,15,16,17-decahydro-1H-cyclopenta[a]phenanthren-6-one oxime], for which the mrna remaining at 10 µM was less than 70%.

The compound `CCO/N=C(/C)[C@H]1CC[C@@]2(O)C3=CC(=O)[C@@H]4C[C@@H](O)[C@@H](O)C[C@]4(C)C3CC[C@]12C` (stereo partly drawn) [Compound 23, (2S,3R,5R,10R,13R,14S,17S)-17-(N-ethoxy-C-methylcarbonimidoyl)-2,3,14-trihydroxy-10,13-dimethyl-2,3,4,5,9,11,12,15,16,17-decahydro-1H-cyclopenta[a]phenanthren-6-one] came in with a mrna remaining at 10 µM of 71 to 85%.

With `CO/N=C(/C)[C@H]1CC[C@@]2(O)C3=CC(=O)[C@@H]4C[C@@H](O)[C@@H](O)C[C@]4(C)C3CC[C@]12C` (stereo partly drawn) [Compound 25, (2S,3R,5R,10R,13R,14S,17S)-17-(N-methoxy-C-methylcarbonimidoyl)-2,3,14-trihydroxy-10,13-dimethyl-2,3,4,5,9,11,12,15,16,17-decahydro-1H-cyclopenta[a]phenanthren-6-one], the mrna remaining at 10 µM was less than 70%.

In turn, `C/C(=N/OCCOc1ccccc1)[C@H]1CC[C@@]2(O)C3=CC(=O)[C@@H]4C[C@@H](O)[C@@H](O)C[C@]4(C)C3CC[C@]12C` (stereo partly drawn) [Compound 27, (2S,3R,5R,10R,13R,14S,17S)-2,3,14-trihydroxy-10,13-dimethyl-17-(C-methyl-N-(2-phenoxyethoxy)carbonimidoyl)-2,3,4,5,9,11,12,15,16,17-decahydro-1H-cyclopenta[a]phenanthren-6-one] showed a mrna remaining at 10 µM of less than 70%.

In turn, `COCCO/N=C(/C)[C@H]1CC[C@@]2(O)C3=CC(=O)[C@@H]4C[C@@H](O)[C@@H](O)C[C@]4(C)C3CC[C@]12C` (stereo partly drawn) [Compound 29, (2S,3R,5R,10R,13R,14S,17S)-2,3,14-trihydroxy-17-(N-(2-methoxyethoxy)-C-methylcarbonimidoyl)-10,13-dimethyl-2,3,4,5,9,11,12,15,16,17-decahydro-1H-cyclopenta[a]phenanthren-6-one] gave a mrna remaining at 10 µM of less than 70%.

`CC(C)=CCO/N=C(/C)[C@H]1CC[C@@]2(O)C3=CC(=O)[C@@H]4C[C@@H](O)[C@@H](O)C[C@]4(C)C3CC[C@]12C` (stereo partly drawn) [Compound 30, (2S,3R,5R,10R,13R,14S,17S)-2,3,14-trihydroxy-10,13-dimethyl-17-(C-methyl-N-(3-methylbut-2-enoxy)carbonimidoyl)-2,3,4,5,9,11,12,15,16,17-decahydro-1H-cyclopenta[a]phenanthren-6-one] had a mrna remaining at 10 µM of 71 to 85%.

Take `C/C(=N/OCCOc1ccccc1)[C@H]1CC=C2C3=CC(=O)[C@@H]4C[C@@H](O)[C@@H](O)C[C@]4(C)C3CC[C@@]21C` (stereo partly drawn) [Compound 33, (2S,3R,5R,10R,13R,17S)-2,3-dihydroxy-10,13-dimethyl-17-(C-methyl-N-(2-phenoxyethoxy)carbonimidoyl)-1,2,3,4,5,9,11,12,16,17-decahydrocyclopenta[a]phenanthren-6-one]: the mrna remaining at 10 µM is less than 70%.

Compound `C/C(=N/OCCN(C)C)[C@H]1CC[C@@]2(O)C3=CC(=O)[C@@H]4C[C@@H](O)[C@@H](O)C[C@]4(C)C3CC[C@]12C` (stereo partly drawn) [Compound 35, (2S,3R,5R,10R,13R,14S,17S)-17-(N-(2-dimethylaminoethoxy)-C-methylcarbonimidoyl)-2,3,14-trihydroxy-10,13-dimethyl-2,3,4,5,9,11,12,15,16,17-decahydro-1H-cyclopenta[a]phenanthren-6-one] came in with a mrna remaining at 10 µM of 71 to 85%.

As for `C/C(=N/OCCN1CCCC1)[C@H]1CC[C@@]2(O)C3=CC(=O)[C@@H]4C[C@@H](O)[C@@H](O)C[C@]4(C)C3CC[C@]12C` (stereo partly drawn) [Compound 36, (2S,3R,5R,10R,13R,14S,17S)-2,3,14-trihydroxy-10,13-dimethyl-17-(C-methyl-N-(2-pyrrolidin-1-ylethoxy)carbonimidoyl)-2,3,4,5,9,11,12,15,16,17-decahydro-1H-cyclopenta[a]phenanthren-6-one], the mrna remaining at 10 µM was in the range of 71 to 85%.

The compound `CO/N=C1\C=C2C(CC[C@]3(C)[C@@H](C(C)N(CC(F)F)C(=O)c4ccco4)CC[C@@]23O)[C@@]2(C)C[C@H](O)[C@H](O)C[C@@H]12` (stereo partly drawn) [Compound 37, N-(2,2-difluoroethyl)-N-[1-[(2S,3R,5R,6E,10R,13R,14S,17S)-2,3,14-trihydroxy-6-methoxyimino-10,13-dimethyl-2,3,4,5,9,11,12,15,16,17-decahydro-1H-cyclopenta[a]phenanthren-17-yl]ethyl]furan-2-carboxamide] had a mrna remaining at 10 µM of 71 to 85%.

Compound `CO/N=C1\C=C2C(CC[C@]3(C)[C@@H](C(C)N(CC(OC)OC)C(=O)C(C)C)CC[C@@]23O)[C@@]2(C)C[C@H](O)[C@H](O)C[C@@H]12` (stereo partly drawn) [Compound 38, N-(2,2-dimethoxyethyl)-2-methyl-N-[1-[(2S,3R,5R,6E,10R,13R,14S,17S)-2,3,14-trihydroxy-6-methoxyimino-10,13-dimethyl-2,3,4,5,9,11,12,15,16,17-decahydro-1H-cyclopenta[a]phenanthren-17-yl]ethyl]propanamide] yielded a mrna remaining at 10 µM of less than 70%.

The record behind these values is patent US10316056B2, “Chemical compounds and use thereof for improving muscular quality” (BIOPHYTIS, priority 2014, dated 2019).
